In brackets after ≈: the same amount, converted by molar mass.
Details: for aqueous solubility: pH 6.8

| SMILES | MDR1-MDCK efflux ratio | intrinsic clearance, human liver microsomes | intrinsic clearance, rat liver microsomes | aqueous solubility |
| --- | --- | --- | --- | --- |
| N#Cc1ccc(NS(=O)(=O)c2c[nH]c3nc(Cl)ccc23)c(F)c1 | 6.41 | ≤ 4.74 mL/min/kg |  | 13.1 µg/mL (≈ 37.3 µM) |
| CN(C)[C@@H]1CN(C(=O)COc2ccccc2)C[C@H]1O |  | ≤ 4.74 mL/min/kg | 17.6 mL/min/kg | 83.3 µg/mL (≈ 315 µM) |
| O=S(=O)(NCC1C2CC3CC(C2)CC1C3)C1CCOCC1 (configuration not stated) |  |  |  | 58.2 µg/mL (≈ 186 µM) |
| CC(C)(C)c1cc(C(=O)CSc2nncn2-c2ccccc2)cc(C(C)(C)C)c1O |  | 15.9 mL/min/kg | 46.6 mL/min/kg |  |
| COc1cc2c(NC3CCN(C(C)C)CC3)nc(N3CCC(F)(F)CC3)nc2cc1OCCCN1CCCC1 |  | ≤ 4.74 mL/min/kg | 26.3 mL/min/kg | 64.8 µg/mL (≈ 119 µM) |
| CCN(Cc1nc2cc(Cl)ccc2c(=O)[nH]1)C(=O)COc1ccccc1Cc1ccccc1 |  | 225 mL/min/kg | 1470 mL/min/kg | 1.22 µg/mL (≈ 2.64 µM) |
| Cc1cc(CCCC(=O)NC[C@H]2CC[C@H](c3ccc(C(N)=O)c(C)n3)CC2)ccc1F | 33.3 | 214 mL/min/kg | 808 mL/min/kg | 3.18 µg/mL (≈ 7.47 µM) |
| O=C(CC/C=C/c1ccccc1)Nc1ccccc1N1CCOC1=O | 2.45 | 32.6 mL/min/kg | 776 mL/min/kg |  |
| Cc1ccc(C(=O)N2CCN(C(=O)NCC(=O)N3CCCC3)CC2)cc1F | 60.6 | ≤ 4.74 mL/min/kg | 22.3 mL/min/kg | 75.6 µg/mL (≈ 201 µM) |
| C[C@]12CCC3=C4CCC(=O)C=C4CC[C@H]3[C@@H]1CC[C@@]2(O)CC#N | 3.64 | 21 mL/min/kg | 185 mL/min/kg |  |
| COc1ccc(Cc2cccc(C3CCN(C(=O)C4CCCC4)CC3)n2)cc1 | 0.66 | 114 mL/min/kg | 883 mL/min/kg | 25.8 µg/mL (≈ 68.2 µM) |
| O=C(Nc1ccc(Cl)nc1)NC1CCN(C2CCCC2)CC1 | 20.9 | ≤ 4.74 mL/min/kg | ≤ 10.7 mL/min/kg |  |
| CC(=O)NC1CCN(Cc2cccc(-c3cccnc3)c2)CC1 | 13.6 | 6.04 mL/min/kg | 42.3 mL/min/kg | 25.8 µg/mL (≈ 83.4 µM) |
| C1CCC(OCc2noc(C3CC3)n2)CC1 | 0.884 | 34 mL/min/kg | 372 mL/min/kg | 16.2 µg/mL (≈ 72.9 µM) |
| N#Cc1ccc(OCCn2cccn2)cc1 | 0.584 | 6.93 mL/min/kg | ≤ 10.7 mL/min/kg | 39.8 µg/mL (≈ 187 µM) |
| CCn1c(SC)nnc1C1CCN(C)CC1 | 7.45 | ≤ 4.74 mL/min/kg | ≤ 10.7 mL/min/kg | 41.2 µg/mL (≈ 171 µM) |

More lines, now with the values ahead:

| MDR1-MDCK efflux ratio | intrinsic clearance, human liver microsomes | intrinsic clearance, rat liver microsomes | aqueous solubility | SMILES |
| --- | --- | --- | --- | --- |
| 0.783 | ≤ 4.74 mL/min/kg | ≤ 10.7 mL/min/kg | 83.3 µg/mL (≈ 278 µM) | CC1(C)CN(C(=O)c2cncc(Br)c2)CCO1 |
|  |  |  | 0.66 µg/mL (≈ 2.35 µM) | CC1=NC(Nc2nc(C)c3ccccc3n2)=NC(C)(C)C1 |
|  | ≤ 4.74 mL/min/kg | ≤ 10.7 mL/min/kg |  | Cc1nc(CNC(=O)c2ccc(F)c(C)c2)no1 |
|  | 7.61 mL/min/kg | 17.5 mL/min/kg |  | CCOc1cc(-c2nnc(NC(=O)c3cccc(C(F)(F)F)c3)o2)cc(OCC)c1OCC |
| 43.4 | 6.19 mL/min/kg | 86.6 mL/min/kg |  | CN1CCc2ccc(C(=O)NCCC(=O)Nc3cccnc3)cc21 |
| 1.88 | 51.4 mL/min/kg | 1070 mL/min/kg |  | C#Cc1cccc(N(CCC(=O)NC(N)=O)Cc2cccs2)c1 |
| 0.537 | ≤ 4.74 mL/min/kg | 24.9 mL/min/kg | 28.6 µg/mL (≈ 128 µM) | Cc1cc(CN(C)Cc2cscn2)no1 |
| 4.16 | 19.3 mL/min/kg | 278 mL/min/kg |  | CCn1ncc(CN(C)C(=O)c2ccc(-c3nc(C)cc(C)n3)cc2)c1C |
| 0.309 | 411 mL/min/kg | 2980 mL/min/kg |  | CCOC(=O)c1ccc(N2CCSCC2)nc1 |
| 0.624 | 15.4 mL/min/kg | 48.8 mL/min/kg | 1.41 µg/mL (≈ 4.18 µM) | Cc1sc(-c2ccccn2)nc1-c1ccc(NC(=O)C(C)C)cc1 |
| 4.8 | 12.7 mL/min/kg | 171 mL/min/kg | 1.1 µg/mL (≈ 2.43 µM) | CN(C)CCOc1ccc(-c2nc(-c3ccncc3)c(-c3ccc4c(c3)CC/C4=N\O)[nH]2)cc1 |
| 0.717 | 23.9 mL/min/kg | 159 mL/min/kg | 5.34 µg/mL (≈ 18 µM) | Cc1cc(Nc2ccc3c(c2)oc(=O)n3C)nc(C2CC2)n1 |
| 79.6 | 56.6 mL/min/kg | 180 mL/min/kg |  | Cn1cnnc1-c1cccc(NS(=O)(=O)c2ccc3c(c2)OCCCO3)c1 |
